Data: publication PMC8869728 (Biomedicines, 2022)
Read-outs that look alike come from different tables or passages of the source.

Tests used:
AChE [1] = conditions: read-out: IC50 of AChE inhibitory activities; cited from earlier work
AChE [2] = tested on: AChE; parameters: method as in PMID 32118214; conditions: read-out: IC50 of AChE inhibitory activity; cited from earlier work
[3] = tested on: scopolamine-treated amnesiac ICR mice; assay: Passive avoidance test in scopolamine-induced amnesiac ICR mice; conditions: scopolamine 1 mg/kg i.p.
Procedure: The 6-week-old male ICR mice were from the Laboratory Animal Center, College of Medicine, National Taiwan University (Taipei, Taiwan). The Prolab® RMH2500 normal diets (LabDiet Co., St. Louis, MO, USA) and water were free access during the animal experiments. After one week of acclimation, the VT-95EE or VT-95EE-EA pre-treatments were used to evaluate preventive functions as follows. […] At the first stage, the extract (VT-95EE and VT-95EE-EA)-administered group, ICR mice were treated from day 1 to day 11 by a single oral administration daily by gavage. […] Except for the blank, each mouse in all groups was intraperitoneally injected with scopolamine (1 mg/kg) 30 min after the oral administration. Each mouse in the blank group was injected with an equal volume of PBS instead of scopolamine. Each mouse received a learning and memory evaluation by a passive avoidance test 30 min after scopolamine injection at day 13 to day 14. All mice were sacrificed in the end of animal experiments at day 15, and the brain tissue of mouse in each group was isolated, weighted, and stored at −80°C for further uses.
The pre-treatment was used to evaluate preventive functions. […] At the first stage, the purified compound (vitisin A and vitisin B) administered group, ICR mice were treated from day 1 to day 9 by a single oral administration daily by gavage. […] Except for the blank, each mouse in all groups was intraperitoneally injected with scopolamine (1 mg/kg) 30 min after the oral administration. Each mouse in the blank group was injected with an equal volume of PBS instead of scoploamine. Each mouse received a learning and memory evaluation by a passive avoidance test 30 min after scopolamine injection at day 11 to day 12. All mice were sacrificed in the end of animal experiments at day 13, and the brain tissue of mice in each group was isolated, weighted, and stored at −80 °C for further uses.
The apparatus for passive avoidance test is a shuttle chamber composed of a bright box and a dark box; the dark box could be closed by a manual guillotine door (AccuScan Instruments Inc, Columbus, OH, USA). The dark box contained a wired metal floor, through which the electric foot shocks were automatically delivered in the acquisition trial. The first day was the acquisition trial, and the second day was the retention trial. For the acquisition trial, each mouse was placed around the shuttle chamber to acclimatize to the environment; 30 min later, each mouse was transferred to the bright box to record the time in the bright box (the step-through latency, s).

recombinant human MAO-B = target: T1, recombinant human MAO-B (Homo sapiens, UniProt P27338); assay: MAO-B inhibitory activities in vitro (kynuramine fluorescence); assay type: biochemical; conditions: calculated from linear equation of three concentrations; read-out: IC50 of MAO-B inhibition
T1 construct: purchased Sigma Chemical Co. (St. Louis, MO, USA)
T1 sequence (P27338 1-520): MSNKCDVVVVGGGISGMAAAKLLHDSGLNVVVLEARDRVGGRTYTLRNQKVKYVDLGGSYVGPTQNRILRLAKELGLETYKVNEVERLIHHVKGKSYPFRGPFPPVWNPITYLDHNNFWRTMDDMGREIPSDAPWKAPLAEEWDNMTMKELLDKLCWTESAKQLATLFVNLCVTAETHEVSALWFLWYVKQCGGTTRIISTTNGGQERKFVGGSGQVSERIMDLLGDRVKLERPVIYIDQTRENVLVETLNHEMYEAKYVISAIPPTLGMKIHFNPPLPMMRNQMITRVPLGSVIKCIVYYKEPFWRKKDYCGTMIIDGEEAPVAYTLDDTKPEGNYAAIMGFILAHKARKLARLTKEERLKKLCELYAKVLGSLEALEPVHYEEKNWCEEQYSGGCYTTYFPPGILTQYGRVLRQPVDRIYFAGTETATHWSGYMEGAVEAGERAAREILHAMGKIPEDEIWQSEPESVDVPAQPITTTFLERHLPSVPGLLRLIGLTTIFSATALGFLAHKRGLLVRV
Procedure: The kynuramine was used as the MAO-B substrate to generate a fluorescent product, 4-hydroxyquinoline, which was used to screen MAO-B inhibitory activity assays. […] The MAO-B inhibition (%) was calculated as the following: [(Fblank − Fsample)/(Fblank)] × 100%. The IC50 of MAO-B activity was calculated from each linear equation from three used concentrations for MAO-B inhibitions.

recombinant human AChE = target: T2, recombinant human AChE (Homo sapiens, UniProt P22303); assay: biochemical; conditions: calculated from linear equation of three concentrations; read-out: IC50 of AChE inhibition
T2 construct: purchased R&D Systems Inc. (Minneapolis, MN)
T2 sequence (P22303 32-614): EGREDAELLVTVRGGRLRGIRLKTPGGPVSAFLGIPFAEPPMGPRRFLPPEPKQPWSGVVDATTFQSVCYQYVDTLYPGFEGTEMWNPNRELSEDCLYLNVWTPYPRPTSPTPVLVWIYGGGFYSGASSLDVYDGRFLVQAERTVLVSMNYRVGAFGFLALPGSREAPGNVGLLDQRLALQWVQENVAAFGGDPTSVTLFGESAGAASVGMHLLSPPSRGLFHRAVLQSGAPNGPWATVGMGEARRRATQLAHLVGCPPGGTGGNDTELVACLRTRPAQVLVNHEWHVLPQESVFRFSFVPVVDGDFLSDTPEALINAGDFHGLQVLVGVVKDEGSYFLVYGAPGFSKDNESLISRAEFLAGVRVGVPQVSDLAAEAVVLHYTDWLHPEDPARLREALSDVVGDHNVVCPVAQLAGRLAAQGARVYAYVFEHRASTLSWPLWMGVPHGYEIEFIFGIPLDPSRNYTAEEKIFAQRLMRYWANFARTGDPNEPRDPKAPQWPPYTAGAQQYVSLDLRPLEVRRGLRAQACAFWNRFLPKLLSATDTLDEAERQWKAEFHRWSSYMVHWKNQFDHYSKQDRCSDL
From the text: The synthetic acetylthiocholine iodide was used as substrates for in vitro AChE activity assays. […] The released thiocholine was reacted with DTNB to generate yellowish 5-thio-2-nitrobenzoate. […] The AChE inhibitory activities (%) were as following: [(A405blank − A405sample)/(A405blank)] × 100%.

SH-SY5Y cells = assay: Neuroprotective activities against MGO-induced SH-SY5Y cell deaths (SRB cell viability); assay type: cell-based, human; conditions: then 500 μM MGO 24 h
Procedure: The SH-SY5Y cells were cultured at 37 °C in the mixed medium of EMEM/F12 (1:1) and 10% FBS in the humidified atmosphere and 5% CO2. […] The treated SH-SY5Y cells were washed with PBS, and then the media without (the blank) or with 500 μM MGO (the control group and sample groups) were added for additional 24-h incubation at 37 °C. The cell viability was assayed by the SRB dyes as follows. The MGO-treated SH-SY5Y cells were washed twice with PBS, fixed by 10% trichloroacetic acid, and then stained with 0.2% SRB (dissolved in 1% acetic acid) for 30 min. The unbound dyes were removed by washing the stained cells with 1% acetic acid. The bound dyes in alive cells were extracted by 500 µL of 10 mM Tris-HCl buffer (pH 7.9). The absorbance at 540 nm was measured using an ELISA reader (TECAN, Männedorf, Switzerland).

[4] = tested on: spontaneously hypertensive rats; parameters: method as in PMID 22762395; conditions: at the 8-h after a single oral dose of 10 mg/kg; cited from earlier work
[5] = tested on: C57BL/6 mice treated with high fat diets; parameters: method as in PMID 26448517; conditions: oral administration once a day at dose of 25 mg/kg with high fat diets; cited from earlier work
[6] = tested on: brain-derived neurotrophic factor (BDNF); assay: BDNF protein expression in mouse brain tissue extracts (immune blot); assay type: in vivo; conditions: vitisin A or B 40 mg/kg oral; donepezil 5 mg/kg; scopolamine-treated mice
Procedure: (§1) The isolated whole brain tissue was weighted, and powdered in liquid nitrogen using a mortar and pestle. The proteins in the tissue powders were suspended and extracted by 1 mL, one-fold-diluted PBS. […] The protein contents in tissue extracts were determined by the BCA^TM protein assay kit (Thermo Fisher Scientific Inc.), and BSA was used to plot the standard curve. The AChE activity in the brain extracts was determined following the previous report. […] The malondialdehyde (MDA) levels in the brain extracts was determined using acidic TBA. The 320 μL of 0.5% TBA in 10% trichloroacetic acid was premixed with 80 μL of 5-fold diluted tissue extracts, and then heated at boiling water for 20 min, and then centrifuged at 10,000 rpm, 4 °C for 30 min. […] For determining protein expressions of BDNF and its receptor, TrkB, among brain extracts of the treated mice, the immune stains were performed onto polyvinylidene difluoride (PVDF) membranes (Millipore, Bedford, MA, USA). […] The western chemiluminescent HRP substrate kit (WBKL S0050, Millipore) was used to stain the target protein expressions, which the image system [Syngene GeneGnome5 imaging system (Cambridge, UK)] was used to quantify the image levels of target protein in the immune blots.

[7] = tested on: tropomyosin receptor kinase B (TrkB); assay: TrkB protein expression in mouse brain tissue extracts (immune blot); assay type: in vivo; conditions: vitisin A or B 40 mg/kg oral; donepezil 5 mg/kg; scopolamine-treated mice
Procedure: as §1

[8] = tested on: malondialdehyde (MDA) levels; assay: MDA levels in mouse brain tissue extracts (TBA); assay type: in vivo; conditions: vitisin A or B 40 mg/kg oral; donepezil 5 mg/kg; scopolamine-treated mice
Procedure: as §1

AChE [9] = target: T3, AChE (Mus musculus, UniProt P21836); assay type: in vivo; conditions: vitisin A or B 40 mg/kg oral; donepezil 5 mg/kg; scopolamine-treated mice
T3 construct: The isolated whole brain tissue was weighted, and powdered in liquid nitrogen using a mortar and pestle; from tissue; host or cells: whole brain of ICR mice (PBS extract, supernatant)
T3 sequence (P21836 32-614): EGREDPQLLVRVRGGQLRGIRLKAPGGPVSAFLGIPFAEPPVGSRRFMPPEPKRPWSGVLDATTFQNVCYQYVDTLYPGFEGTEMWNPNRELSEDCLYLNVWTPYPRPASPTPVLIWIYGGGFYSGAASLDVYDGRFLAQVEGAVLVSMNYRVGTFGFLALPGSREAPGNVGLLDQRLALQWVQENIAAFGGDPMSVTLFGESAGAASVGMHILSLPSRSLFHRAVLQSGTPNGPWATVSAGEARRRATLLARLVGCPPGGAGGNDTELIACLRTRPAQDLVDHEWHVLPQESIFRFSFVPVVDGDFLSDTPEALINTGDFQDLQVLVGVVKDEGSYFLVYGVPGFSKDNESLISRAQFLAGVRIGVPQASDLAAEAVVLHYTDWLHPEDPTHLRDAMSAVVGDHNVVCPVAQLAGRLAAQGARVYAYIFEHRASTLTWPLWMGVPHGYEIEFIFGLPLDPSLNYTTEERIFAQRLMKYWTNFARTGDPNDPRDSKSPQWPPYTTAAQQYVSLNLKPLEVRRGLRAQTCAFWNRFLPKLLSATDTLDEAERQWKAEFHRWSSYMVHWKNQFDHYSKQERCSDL
Procedure: as §1

[10] = tested on: endothelium-intact thoracic aortic rings of SD rats; parameters: method as in PMID 22762395; conditions: by increasing NO releases; cited from earlier work
[11] = compound study: vitisin A or vitisin B 40 mg/kg oral daily day 1-13, donepezil 5 mg/kg day 10-13
[12] = pretreatment 2.5, 5, 10, and 20 μM for 24 h

SMILES | IC50 (AChE [1]) [µM] | step-through latency in the retention trial compared to the control [3, 11] | IC50 (recombinant human MAO-B) [µM] | IC50 (recombinant human AChE) [µM] | MGO-treated cell viability compared to the control (SH-SY5Y cells; [12]) | also measured
O=C(OC[C@H]1O[C@@H](OC(=O)c2cc(O)c(O)c(O)c2)[C@H](OC(=O)c2cc(O)c(O)c(O)c2)[C@@H](OC(=O)c2cc(O)c(O)c(O)c2)[C@@H]1O)c1cc(O)c(O)c(O)c1 [1,2,3,6-tetra-O-galloyl-β-D-glucopyranoside] | 84.2 |  |  |  |  | 
COc1cc(/C=C/C(=O)CC(=O)/C=C/c2ccc(O)c(O)c2)ccc1O [demethylcurcumin] |  |  |  |  |  | IC50 (AChE [2]): 66.9 µM
COc1cc2c(cc1OC)C(=O)C(CC1CCN(Cc3ccccc3)CC1)C2 (stereo not drawn) [donepezil, reference compound] |  | significant longer time |  |  |  | step-through latency in the retention trial compared to the control ([3]; extract study: VT-95EE or VT-95EE-EA 200 and 400 mg/kg oral daily day 1-15, donepezil 5 mg/kg day 12-15): significant longer time
Oc1ccc([C@H]2c3c(O)cc(O)cc3[C@H]3c4c(cc(O)cc4[C@@H]2[C@H]2c4cc(O)cc5c4[C@H](c4cc(O)cc(O)c4[C@@H]2c2ccc(O)cc2)[C@@H](c2ccc(O)cc2)O5)O[C@@H]3c2ccc(O)cc2)cc1 [hopeaphenol, (+)-hopeaphenol] |  |  | 88.2 | 8.06 | no significant difference | 
Oc1ccc(/C=C/c2cc(O)cc(O)c2)cc1 [resveratrol, reference compound] |  |  | 41.3 |  | no significant difference | 
O=C(OC1O[C@@H]2COC(=O)c3cc(O)c(O)c(O)c3-c3c(cc(O)c(O)c3O)C(=O)O[C@H]2[C@H](OC(=O)c2cc(O)c(O)c(O)c2)[C@H]1OC(=O)c1cc(O)c(O)c(O)c1)c1cc(O)c(O)c(O)c1 (stereo partly drawn) [tellimagrandin II] | 18.6 |  |  |  |  | 
O=C(O[C@H]1[C@@H]2OC(=O)c3cc(O)c(O)c(O)c3-c3c(cc(O)c(O)c3O)C(=O)OC[C@H]2OC(O)[C@@H]1OC(=O)c1cc(O)c(O)c(O)c1)c1cc(O)c(O)c(O)c1 (stereo partly drawn) [tellimagrandin I] | 18.4 |  |  |  |  | 
Oc1ccc([C@H]2c3c(O)cc(O)cc3[C@H]3c4c(cc(O)cc4[C@@H]2c2cc(/C=C/c4cc(O)cc5c4[C@H](c4cc(O)cc(O)c4)[C@@H](c4ccc(O)cc4)O5)ccc2O)O[C@@H]3c2ccc(O)cc2)cc1 [vitisin A, (+)-vitisin A] |  | significant longer time | 4.94 | 1.29 | significantly to elevate MGO-treated cell viability | greatest reduction in diastolic blood pressure [4]: 25.7 mmHg; greatest reduction in systolic blood pressure [4]: 23.6 mmHg; weight gains [5]: reduce weight gains; BDNF protein expression in brain tissue extracts [6]: recover both protein expressions of the reduced BDNF and TrkB; TrkB protein expression in brain tissue extracts [7]: recover both protein expressions of the reduced BDNF and TrkB; MDA levels in brain tissue extracts compared to the control [8]: lower increase in AChE and MDA levels; AChE activity in brain tissue extracts compared to the control (AChE [9]): lower increase in AChE and MDA levels; effect on phenylephrine-induced tension [10]: vasodilating effects
Oc1ccc([C@H]2Oc3cc(O)cc(/C=C/c4ccc5c(c4)[C@@H](c4cc(O)cc6c4[C@H](c4cc(O)cc(O)c4)[C@@H](c4ccc(O)cc4)O6)[C@H](c4ccc(O)cc4)O5)c3[C@@H]2c2cc(O)cc(O)c2)cc1 [vitisin B, (−)-vitisin B] |  | no significant difference | 1.08 | 1.33 |  | BDNF protein expression in brain tissue extracts [6]: recover the reduced BDNF protein expressions; MDA levels in brain tissue extracts compared to the control [8]: no effect on reduction of MDA level; AChE activity in brain tissue extracts compared to the control (AChE [9]): lower increased AChE activities; MGO-treated cell viability compared to the control (SH-SY5Y cells; pretreatment 5, 10, and 20 μM for 24 h): significantly to elevate MGO-treated cell viability
